Measured values reported in patent US5274098A, “Amidinophenylalanine derivatives, process for their preparation, their use and compositions containing them” (Behringwerke Aktiengesellschaft, priority 1991, dated 1993).

Legend:
thrombin [1] = details: cited from earlier work
human thrombin [2] = molecular target: T1, human thrombin (Homo sapiens, UniProt P00734); assay: IC50 value of the thrombin inhibition (Chromozym TH, pNA release at 405 nm); assay type: biochemical; details: 0.1M tris-HCl/0.15 M NaCl pH 8.2, 1 h preincubation, substrate Chromozym TH 5×10^-5 M
T1 construct: human thrombin
Description: Determination of the IC50 value of the thrombin inhibition:
The compounds were incubated with human thrombin in 0.1M tris-HCl buffer/0.15 M NaCl pH 8.2 in increasing concentrations.

human thrombin [3] = molecular target: T1, human thrombin; assay: KI value for thrombin (Lineweaver and Burk, Chromozym TH); assay type: biochemical; details: inhibitor conc. approx. IC50, Chromozym TH 0.7-45×10^-5 mol/l, read-out: Thrombin inhibition KI
Description: Determination of the KI value for thrombin:
The KI values for the compounds investigated were determined using the abovementioned thrombin solution. To do this, thrombin was incubated with a concentration of inhibitor which approximately corresponded to the IC50 value determined in the abovementioned test.

thrombin [4] = assay: Activity with respect to inhibition of thrombin / antithrombotic activity, general statements; assay type: biochemical; details: relative to the glycine compound
From the text: The inhibitors according to the invention are examined according to various criteria to assess their activity, preferably these are the determination of the Ki value, the IC50 value or the partial thromboplastin time (PTT) in vivo and in vitro.

| Compound | type of thrombin inhibition (prior art, in words) (thrombin [1]) | IC50 (human thrombin [2]) [nM] | Ki (human thrombin [3]) [nM] | exceeds the activity of the glycine compound by a factor (thrombin [4]) |
| --- | --- | --- | --- | --- |
| CC1CNc2c(cccc2S(=O)(=O)N[C@@H](CCCNC(=N)N)C(=O)N2CC[C@@H](C)C[C@@H]2C(=O)O)C1 (stereo partly shown) [MD 805, monohydrate] | competitive specific thrombin inhibitor |  |  |  |
| N=C(N)c1ccc(C[C@@H](NC(=O)NNS(=O)(=O)c2ccc3ccccc3c2)C(=O)N2CCCCC2)cc1 [Nas--AGly--Aph--Pip, Beta-naphthylsulfonyl-azaglycyl-D-p-amidinophenylalanylpiperidide] |  | 1.3 | 2.6 | 5 |
| Cc1c(C)c(S(=O)(=O)NNC(=O)N[C@H](Cc2ccc(C(=N)N)cc2)C(=O)N2CCCCC2)c(C)c2c1OC(C)(C)CC2 [Pmc--AGly--Aph--Pip, Pmc-Azaglycyl-D-p-amidinophenylalanylpiperidide] |  |  | 0.092 |  |
| Cc1c(C)c(S(=O)(=O)NCC(=O)NC(Cc2ccc(C(=N)N)cc2)C(=O)N2CCCCC2)c(C)c2c1OC(C)(C)CC2 (stereo not shown) [Pmc--Gly--Aph--Pip, reference compound] |  | 1.4 | 1.3 |  |
